# Reference: patent publication US20190369122A1, “METABOLIC DISORDERS” (priority 2016, published 2019)
# Columns and labels:
# [1] = Circulating levels after intraperitoneal injection in GF mice; assay type: in vivo, mouse; details: 500 μg intraperitoneally twice per day for 3 days
# Protocol: (§1) An intraperitoneal glucose tolerance test (using 1 g glucose per kg body weight) was then performed after a 4 h fast. Blood glucose levels were measured from tail blood using HemoCue201+analyzer (HemoCue, Angelholm, Sweden). Liver and plasma samples were collected after a 4 h fast. Mice were under isoflurane anesthesia and killed by cervical dislocation. Fresh liver was taken and snap-frozen in liquid nitrogen and stored at −80° C. until protein extraction.
# The samples were then reconstituted with 5% HCl in n-butanol at 70° C. for 1 h, allowing n-butyl ester to be formed. […] Samples (5 μl) were injected onto a C18 BEH column (2.1×100 mm with 1.7 μm particles; Waters, Milford, Mass.) using a gradient consisting of water with 0.1% formic acid (A-phase) and acetonitrile with 0.1% formic acid (B-phase). Mass spectrometric analysis was performed using an Infinity 1290 quaternary UPLC pump (Agilent, Santa Clara, Calif.) coupled to a QTRAP 5500 (ABSciex, Concord, Canada). […] For the internal standards, the transitions 206/81 and 204/93 were used.
# CONVR mice = test: Metabolic cages (PhenoMaster) in CONVR mice; assay type: in vivo, mouse; details: 100 μg i.p. twice a day for 3 days
# Protocol: Mice were singly housed for two days before being transferred to the PhenoMaster cages, and allowed an additional 2 days to acclimatize to the new cage before taking measurements. Parameters were automatically measured every 15 min for 5 days. During the measurements, the mice had free access to water and food. […] Oxygen consumption (VO2) was calculated from measurements of oxygen and carbon dioxide concentration in the reference cage compared to the sample cage. Measurements of oxygen consumption and energy expenditure were adjusted to lean body mass, which was determined by MRI (EchoMRI, Houston, Tex., USA).
# [2] = test system: insulin signaling components; test: IRS and Akt in liver, muscle and WAT of CONVR mice; assay type: in vivo, mouse
# Protocol: as §1
# Snap-frozen liver and harvested cells were lysed in buffer containing 50 mM Tris-HCl (pH 7.4), 150 mM NaCl, 1 mM EDTA, 1 mM Na3VO4, 20 mM NaF, 10 mM glycerophosphate, 1 mM PMSF, 10% glycerol, 1% Triton X-100 and protease inhibitor cocktail. For immunoprecipitation, the cell lysates were obtained in 0.3% CHAPS-containing lysis buffer, sonicated and centrifuged at 20,000 g for 15 min at 4° C., and the supernatant was incubated with 20 μl of anti-FLAG beads (Sigma) at 4° C. for 4 h under gentle agitation.
# [3] = test system: amino acid-deprived primary hepatocytes; test: Amino acid-deprived primary hepatocytes (immunoblot); assay type: cell-based, mouse; details: absence of amino acids; 100 μM for 2 h
# Protocol: Primary hepatocytes were isolated from C57BL/6J mice by digesting liver with perfusion of collagenase type IV as described previously. After perfusion, 16×10^5 cells were plated on collagen-coated 60 mm dishes in Dulbecco's modified Eagle's medium (DMEM)/F12 supplemented with fetal bovine serum (FBS), penicillin/streptomycin and 100 nM dexamethasone. After 4 h, the medium was changed to DMEM/F12 containing penicillin/streptomycin.
# HEK293 cells = test: Immunofluorescence of mTOR and LAMP2 in HEK293 cells; assay type: cell-based, human; details: amino acid-deprived HEK293; 100 μM for 1 h
# Protocol: Cells were grown on poly-L-lysine (Sigma) coated 4 well chamber slides, fixed with 4% paraformaldehyde for 15 min at 37° C., then washed with glycine-PBS and permeablized with 0.3% Triton X-100 for 10 min. After blocking with 3% BSA in PBS, cells were stained for mTOR and LAMP2. Images were obtained by confocal microscope.
# p38γ = target: T1, p38γ (Homo sapiens, UniProt P53778); test: In vitro kinase assay; assay type: biochemical
# T1 construct: purchased Abcam ab125651
# T1 sequence (P53778 1-367): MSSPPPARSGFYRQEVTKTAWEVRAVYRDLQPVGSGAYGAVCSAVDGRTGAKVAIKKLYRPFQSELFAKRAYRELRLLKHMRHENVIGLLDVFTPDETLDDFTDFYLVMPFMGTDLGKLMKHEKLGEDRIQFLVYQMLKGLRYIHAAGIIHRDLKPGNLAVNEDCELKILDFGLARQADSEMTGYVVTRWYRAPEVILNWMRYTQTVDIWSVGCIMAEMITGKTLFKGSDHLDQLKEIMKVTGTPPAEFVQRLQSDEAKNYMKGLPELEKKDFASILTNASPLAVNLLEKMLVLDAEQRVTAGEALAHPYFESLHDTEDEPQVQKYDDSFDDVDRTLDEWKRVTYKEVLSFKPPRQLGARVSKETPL
# Protocol: 400 ng of recombinant p62 (Abcam, ab95320) and 200 ng of recombinant p38γ (Abcam, ab125651) were incubated in a kinase assay buffer [25 mM MOPS (pH 7.2), 12.5 mM beta-glycerol-phosphate, 25 mM MgCl2, 5 mM EGTA, 2 mM EDTA and 1 mM DTT] for 15 min on ice.
# mTORC2 = target: T2, mTORC2 (Homo sapiens, UniProt P42345); test: mTORC2 kinase activity assay; assay type: biochemical
# T2 construct: expressed in transfected cells; host or cells: HEK293
# Protocol: HEK293 cells were transfected with 1 μg of HA Rictor and 0.5 μg of Flag mTOR for mTORC2 activity assay, lysed with 0.3% CHAPS-containing lysis buffer, sonicated and centrifuged at 20,000 g for 15 min at 4° C., and the supernatant was incubated with 2 μg of anti-HA antibody at 4° C. for overnight under gentle agitation. Immunocomplexes were then collected with protein A-Sepharose beads (RepliGen, Needham, Mass.) at 4° C. for 2 h and washed three times with 0.3% CHAPS-containing lysis buffer. […] Kinase reaction was started by adding 100 μM ATP for 15 min at 37° C. and stopped by adding 5× Laemmli buffer.
# [4] = Targeted measurements in portal and peripheral blood, first cohort; details: human portal vs peripheral blood
# Text: Two human cohorts were used in this study. The first cohort comprised five obese subjects with type 2 diabetes and ten BMI-matched subjects without type 2 diabetes who were undergoing laparoscopic Roux-and-Y gastric bypass surgery at the Slotervaart Hospital, Amsterdam, the Netherlands, see Table 2. Subjects were fasted overnight before the morning of the surgery, and a peripheral venous sample was taken just before the patient went into the operating room. Anthropometric measurements and a stool sample were also taken before surgery. During the surgery, a portal vein sample (vena puncture) was taken as previously described. Fasting glucose (by glucose meters, Roche Diagnostics), insulin (by an electrochemiluminescence immunoassay, Roche Modular System) and HbA1c (Menarini Diagnostic) were measured in the peripheral blood. All participants gave informed consent before the surgery and the protocol was approved by the Medical Ethical Committee of the Slotervaart Hospital, Amsterdam, the Netherlands.
# The samples were then reconstituted with 5% HCl in n-butanol at 70° C. for 1 h, allowing n-butyl ester to be formed. […] Samples (5 μl) were injected onto a C18 BEH column (2.1×100 mm with 1.7 μm particles; Waters, Milford, Mass.) using a gradient consisting of water with 0.1% formic acid (A-phase) and acetonitrile with 0.1% formic acid (B-phase). […]
structure (smiles),measurement,setting,value
O=C(O)CCc1cnc[nH]1 [imidazole propionate],circulating concentrations of imidazole propionate,[1],around 13 nM
same,effect on urocanate levels,[1],without affecting
same,energy expenditure in the early dark phase,CONVR mice,significantly reduced
same,total locomotor activity,CONVR mice,not significantly reduced
same,"basal Akt S473 phosphorylation in liver, muscle and WAT",[2]; 3-day injection vs vehicle,higher
same,"IRS levels in liver, muscle or WAT",[2]; 3-day injections,did not reduce
same,S6K1 phosphorylation,[3],strongly induced
same,lysosomal localization of mTOR,HEK293 cells,induced
same,p62 phosphorylation (T269 and S272) by p38γ,"p38γ; recombinant p38γ and p62, ATP 50 μM",enhanced
same,p38γ autophosphorylation,p38γ; together with ATP,induced
same,in vitro mTORC2 kinase activity towards Akt,mTORC2,not altered
same,metabolism inferred from similar portal and peripheral blood concentrations,[4],not metabolized
